Laboratory results reported in patent publication US9132084B2, “Methods for administration and formulations for the treatment of regional adipose tissue” (NEOTHETICS, INC., priority 2009, dated 2015).

Test: Plasma pharmacokinetics following a single intravenous and subcutaneous injection of a combination of formoterol and budesonide
Details: for AUC(0-inf): AUCinf; for bioavailability: F (bioavailability); for concentration at 0.0333 hr: female 2-0623, 0.0333 hr; for concentration at 0.0833 hr: female 2-0623, 0.0833 hr; for concentration at 0.167 hr: female 2-0623, 0.167 hr; for concentration at 0.333 hr: female 2-0623, 0.333 hr; for concentration at 0.5 hr: female 2-0623, 0.500 hr; for concentration at 0.75 hr: female 2-0623, 0.750 hr; for concentration at 1 hr: female 2-0623, 1.00 hr; for concentration at 2 hr: female 2-0623, 2.00 hr; for concentration at 4 hr: female 2-0623, 4.00 hr; for concentration at 8 hr: female 2-0623, 8.00 hr
Method: Formoterol fumarate dehydrate and budesonide were formulated in 2% PEG-400 in saline. 1 male and 1 female non-naive Gottingen minipigs (8 to 12 kg upon receipt per protocol) were utilized. The animals were housed individually.
Each minipig received a single IV injection of the combined formoterol and budesonide formulation followed by testing of the SC doses. Each dose was separated by at least a 3-day washout period. The IV dose was administered by slow bolus (1 minute; 0.017 hr) into the marginal ear vein, whereas the first SC dose was administered as a bolus injection along the back (neck-region) where there was a longitudinal fat depot. The second SC dose was distributed in 5 separate proximal SC injections separated by approximately 2 cm. Blood samples (approximately 4 mL) were collected via the branchiocephalic plexus at pre-dose and at 2, 5, 10, 20, 30 and 45 minutes, and at 1, 2, 4, 8 and 24 hr post-dose. Blood samples were placed in tubes containing K2-EDTA as the anticoagulant. Samples were processed to plasma by centrifugation and stored frozen at approximately −70° C. (+/−15° C.) until shipment for analysis.
Plasma samples were analyzed for formoterol and budesonide using a qualified liquid chromatography/mass spectrometry/mass mass spectrometry (LC/MS/MS) method. The lower limit of quantitation (LLOQ) was 1.00 pg/mL for formoterol and 25.0 pg/mL for budesonide.
Non-compartmental pharmacokinetic parameters were calculated using WinNonlin 5.2 software, NCA model 202, IV infusion input for the IV data and NCA model 200, extravascular input for the SC data. Individual plasma concentrations for each animal were used in the calculation of pharmacokinetic parameters. Nominal collection times and doses were used in the calculations. The area under the plasma concentration-time curve (AUC) was calculated using linear trapezoidal approximation (linear/log interpolation). Concentration values below the assay limit of quantitation were set to zero for calculations. The maximum plasma concentration (Cmax) and the time of its occurrence (Tmax) were verified by inspection. The half-life (t1/2) values were calculated using the last 3 plasma concentrations with nonzero values, if data permitted.

[1] = female, Gottingen, minipig, in vivo, formoterol 0.4 μg/kg SC1 single site, combination, female 2-0623
[2] = female, Gottingen, minipig, in vivo, formoterol 0.4 μg/kg SC5 (5 sites), combination, female 2-0623
[3] = female, Gottingen, minipig, in vivo, Plasma concentration of formoterol, SC1 0.4 μg/kg, combination
[4] = female, Gottingen, minipig, in vivo, Plasma concentration of formoterol, SC5 0.4 μg/kg, combination
[5] = female, Gottingen, minipig, in vivo, iv, 0.4 ug/kg
[6] = female, Gottingen, minipig, in vivo, iv, 0.4 ug/kg, formoterol 0.4 μg/kg IV in combination with budesonide, female 2-0623
[7] = female, Gottingen, minipig, in vivo, iv, Plasma concentration of formoterol, IV 0.4 μg/kg, combination

COc1ccc(CC(C)NCC(O)c2ccc(O)c(NC=O)c2)cc1 (centres unmarked) [Formoterol, formoterol]
Plasma concentration of formoterol (IV 0.4 μg/kg, combination, female 2-0623, 24.0 hr): <LLOQ (LLOQ = 1.00 pg/mL for formoterol)
Plasma concentration of formoterol (IV 0.4 μg/kg, combination, male 1-0771, 0 hr): <LLOQ (LLOQ = 1.00 pg/mL for formoterol)
Plasma concentration of formoterol (IV 0.4 μg/kg, combination, male 1-0771, 24.0 hr): <LLOQ (LLOQ = 1.00 pg/mL for formoterol)
Plasma concentration of formoterol (SC1 0.4 μg/kg, combination, female 2-0623, 0 hr): <LLOQ (LLOQ = 1.00 pg/mL for formoterol)
Plasma concentration of formoterol (SC1 0.4 μg/kg, combination, female 2-0623, 24.0 hr): <LLOQ (LLOQ = 1.00 pg/mL for formoterol)
Plasma concentration of formoterol (SC5 0.4 μg/kg, combination, female 2-0623, 0 hr): <LLOQ (LLOQ = 1.00 pg/mL for formoterol)
Plasma concentration of formoterol (SC5 0.4 μg/kg, combination, male 1-0771, 0 hr): <LLOQ (LLOQ = 1.00 pg/mL for formoterol)
AUC(0-inf) [1]: 0.378 ng·h/mL
AUC(0-inf) [2]: 0.577 ng·h/mL
Cmax [1]: 0.284 ng/mL
Cmax [2]: 0.256 ng/mL
bioavailability [1]: 115%
bioavailability [2]: 176%
concentration at 0.0333 hr [3]: 0.169 ng/mL
concentration at 0.0833 hr [3]: 0.284 ng/mL
concentration at 0.167 hr [3]: 0.237 ng/mL
concentration at 0.333 hr [3]: 0.156 ng/mL
concentration at 0.5 hr [3]: 0.127 ng/mL
concentration at 0.75 hr [3]: 0.0789 ng/mL
concentration at 1 hr [3]: 0.0678 ng/mL
concentration at 2 hr [3]: 0.0512 ng/mL
concentration at 4 hr [3]: 0.0285 ng/mL
concentration at 8 hr [3]: 0.00858 ng/mL
concentration at 0.0333 hr [4]: 0.0946 ng/mL
concentration at 0.0833 hr [4]: 0.256 ng/mL
concentration at 0.167 hr [4]: 0.178 ng/mL
concentration at 0.333 hr [4]: 0.131 ng/mL
concentration at 0.5 hr [4]: 0.1 ng/mL
concentration at 0.75 hr [4]: 0.0826 ng/mL
concentration at 1 hr [4]: 0.0628 ng/mL
concentration at 2 hr [4]: 0.0444 ng/mL
concentration at 4 hr [4]: 0.026 ng/mL
concentration at 8 hr [4]: 0.0103 ng/mL
concentration at 24 hr (female, Gottingen, minipig, in vivo, Plasma concentration of formoterol, SC5 0.4 μg/kg, combination, female 2-0623, 24.0 hr): 0.00695 ng/mL
Tmax [1]: 5 min
Tmax [2]: 5 min
Vd [5]: 3.17 L/kg
clearance [5]: 20.3 mL/min/kg
AUC(0-inf) [6]: 0.328 ng·h/mL
Cmax [6]: 0.9 ng/mL
Tmax [6]: 2 min
half-life (female, Gottingen, minipig, in vivo, iv, 0.4 ug/kg, t1/2, formoterol 0.4 μg/kg IV in combination with budesonide, female 2-0623): 2.86 h
concentration at 0 hr (female, Gottingen, minipig, in vivo, iv, Plasma concentration of formoterol, IV 0.4 μg/kg, combination, female 2-0623, 0 hr): 0.00353 ng/mL
concentration at 0.0333 hr [7]: 0.9 ng/mL
concentration at 0.0833 hr [7]: 0.204 ng/mL
concentration at 0.167 hr [7]: 0.11 ng/mL
concentration at 0.333 hr [7]: 0.0735 ng/mL
concentration at 0.5 hr [7]: 0.0984 ng/mL
concentration at 0.75 hr [7]: 0.0614 ng/mL
concentration at 1 hr [7]: 0.0454 ng/mL
concentration at 2 hr [7]: 0.0313 ng/mL
concentration at 4 hr [7]: 0.0184 ng/mL
concentration at 8 hr [7]: 0.00726 ng/mL
half-life (female, Gottingen, minipig, in vivo, t1/2, formoterol 0.4 μg/kg SC1 single site, combination, female 2-0623): 2.33 h
half-life (female, Gottingen, minipig, in vivo, t1/2, formoterol 0.4 μg/kg SC5 (5 sites), combination, female 2-0623): 12.8 h
tlast (formoterol 0.4 μg/kg IV in combination with budesonide, female 2-0623): 8.00 h
